Source: patent US6806276B2, “2-oxoquinoline compounds and pharmaceutical uses thereof” (Japan Tobacco Inc., priority 1999, dated 2004)
Where two headings read alike, the source gives them in different places.

Experiments:
[1] = target: T1, human central type cannabinoid receptor (hCB1) (Homo sapiens, UniProt P21554); experiment: Binding assay (in vitro), [3H]Win55212-2 displacement, membrane fractions of human CB1-CHO; conditions: hCB1 expressed in CHO cells, [3H]Win55212-2 2 nM, 30° C. 90 minutes
T1 construct: expressed in transfected cells; host or cells: CHO cells
Description: (§1) Membrane fractions of human central type cannabinoid receptor (human CB1-CHO, hereinafter called hCB1) and human peripheral type cannabinoid receptor (human CB2-CHO, hereinafter called hCB2) expressed in CHO cells were used as samples. The reference material (hCB1: 20 μg/ml, hCB2: 5 μg/ml), labeled ligand ([^3H]Win55212-2, 2 nM) and unlabeled ligand Win55212-2 or test compound were added to a 24-well round bottom plate, and the plate was incubated at 30° C. for 90 minutes. 50 mM Tris-HB55 containing 0.2% BSA was used as an assay buffer. After incubation, the mixture was filtered (Packard, Unifilter 24GF/B) and dried, and then a scintillation solution (Packard, Microsint-20) was added thereto to determine the radioactivity of the sample (Packard, Top count A9912V). Nonspecific binding was determined by the addition of excessive amount of Win55212-2 (10 μM), and specific binding was calculated by subtracting the nonspecific binding from total binding determined by the addition of the labeled ligand only. The test compound was dissolved in DMSO to make the final concentration in DMSO to be 0.1%. IC50 value was determined from the proportion of the bound test compound in the specific binding, and K1 value of the test compound was calculated from the ICso value and Kd value of [^3H]Win55212-2. K1 value for the central type receptors/K1 value for peripheral type receptors (C/S) was also calculated as an indicator of the selectivity of the test compound for peripheral type receptors.

[2] = target: T2, human peripheral type cannabinoid receptor (hCB2) (Homo sapiens, UniProt P34972); experiment: Binding assay (in vitro), [3H]Win55212-2 displacement, membrane fractions of human CB2-CHO; conditions: for Ki: hCB2 expressed in CHO cells, [3H]Win55212-2 2 nM, 30° C. 90 minutes
T2 construct: expressed in transfected cells; host or cells: CHO cells
Description: as §1

[3] = read-out: Ki value Central type receptor (C)
[4] = Ki value Peripheral type receptor (S)
[5] = indicator of selectivity for peripheral type receptors
[6] = read-out: Ki value Peripheral type receptor (S)
[7] = Ki value Central type receptor (C)

T2 sequence (P34972 whole entry): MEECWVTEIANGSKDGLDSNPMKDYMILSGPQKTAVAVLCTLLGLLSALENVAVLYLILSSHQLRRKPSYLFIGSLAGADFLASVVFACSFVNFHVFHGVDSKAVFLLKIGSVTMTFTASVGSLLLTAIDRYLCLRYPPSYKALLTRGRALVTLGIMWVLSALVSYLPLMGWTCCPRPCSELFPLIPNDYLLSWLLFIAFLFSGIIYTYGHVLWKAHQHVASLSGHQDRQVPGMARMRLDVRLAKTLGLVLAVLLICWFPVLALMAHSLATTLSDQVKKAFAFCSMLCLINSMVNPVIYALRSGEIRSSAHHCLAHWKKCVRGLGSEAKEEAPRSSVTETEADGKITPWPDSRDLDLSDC
T1 sequence (P21554 whole entry): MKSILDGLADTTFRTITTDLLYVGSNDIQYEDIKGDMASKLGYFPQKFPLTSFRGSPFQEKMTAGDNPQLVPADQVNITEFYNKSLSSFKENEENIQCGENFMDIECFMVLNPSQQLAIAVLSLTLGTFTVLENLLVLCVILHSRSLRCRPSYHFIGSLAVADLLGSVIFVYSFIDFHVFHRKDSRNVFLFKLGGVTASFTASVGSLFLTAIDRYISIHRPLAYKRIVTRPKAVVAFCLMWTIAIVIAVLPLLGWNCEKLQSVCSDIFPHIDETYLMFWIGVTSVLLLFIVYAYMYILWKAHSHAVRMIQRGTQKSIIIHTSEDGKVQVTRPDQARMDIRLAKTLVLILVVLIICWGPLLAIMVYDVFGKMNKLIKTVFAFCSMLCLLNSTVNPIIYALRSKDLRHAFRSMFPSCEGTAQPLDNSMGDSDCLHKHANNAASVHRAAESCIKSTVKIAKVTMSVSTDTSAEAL

Compound | Ki [1, 3] [nM] | Ki [2, 4] [nM] | C/S (Ki central type receptors / Ki peripheral type receptors) [2, 5] | Ki [2, 6] [nM] | Ki [1, 7] [nM] | C/S (Ki central type receptors / Ki peripheral type receptors) [2]
CCCCCOc1cc2cc(C(=O)OC)c(=O)[nH]c2cc1OC [Example 1-2, 7-methoxy-2-oxo-6-pentyloxy-1,2-dihydroquinoline-3-carboxylic acid methyl ester] | 3670 | 0.014 | 262202 |  |  | 
CCCCCOc1cc2cc(C(=O)OC)c(=O)n(C)c2cc1OC [Example 1-4, 1-methyl-7-methoxy-2-oxo-6-pentyloxy-1,2-dihydroquinoline-3-carboxylic acid methyl ester] | 1630 | 4.49 | 362 |  |  | 
CCCCCOc1c(OC)ccc2cc(C(=O)O)c(=O)[nH]c12 [Example 2-1, 7-methoxy-2-oxo-8-pentyloxy-1,2-dihydroquinoline-3-carboxylic acid] | 4330 |  | 487 | 8.9 |  | 
CCCCOc1c(OC)ccc2cc(C(=O)O)c(=O)[nH]c12 [Example 2-2, 8-butoxy-7-methoxy-2-oxo-1,2-dihydroquinoline-3-carboxylic acid] | 3250 |  | 42172 | 0.77 |  | 
CCCOc1c(OC)ccc2cc(C(=O)O)c(=O)[nH]c12 [Example 2-4, 7-methoxy-2-oxo-8-propoxy-1,2-dihydroquinoline-3-carboxylic acid] | 905 |  | 28273 | 0.032 |  | 
CCCCCOc1cc2cc(C(=O)O)c(=O)[nH]c2cc1OC [Example 2-5, 7-methoxy-2-oxo-6-pentyloxy-1,2-dihydroquinoline-3-carboxylic acid] | 434 | 0.2 |  |  |  | 
CCCCCOc1c(OC)ccc2cc(C(=O)O)c(=O)n(C)c12 [Example 2-6, 1-methyl-7-methoxy-2-oxo-8-pentyloxy-1,2-dihydroquinoline-3-carboxylic acid] | 770 | 0.13 | 5923 |  |  | 
CCCCCOc1cc2cc(C(=O)O)c(=O)n(C)c2cc1OC [Example 2-7, 1-methyl-7-methoxy-2-oxo-6-pentyloxy-1,2-dihydroquinoline-3-carboxylic acid] | 381 | 0.42 | 908 |  |  | 
CCCCCOc1c(OC)ccc2cc(C(=O)NCCc3ccncc3)c(=O)[nH]c12 [Example 3-1, 7-methoxy-2-oxo-8-pentyloxy-1,2-dihydroquinoline-3-carboxylic acid (2-pyridine-4-ylethyl)amide] |  | 0.13 ± 0.05 |  |  | 49 | 372
CCOc1c(OC)ccc2cc(C(=O)NCCc3ccncc3)c(=O)[nH]c12 [Example 3-6, 8-ethoxy-7-methoxy-2-oxo-1,2-dihydroquinoline-3-carboxylic acid (2-pyridine-4-ylethyl)amide] | 609 |  |  |  |  | 
CCCCCOc1c(OC)ccc2cc(C(=O)NCCc3ccc(O)cc3)c(=O)[nH]c12 [Example 3-7, 7-methoxy-2-oxo-8-pentyloxy-1,2-dihydroquinoline-3-carboxylic acid [2-(4-hydroxyphenyl)ethyl]amide] |  | 0.48 | 150 |  | 72 | 
CCCCCOc1c(OC)ccc2cc(C(=O)NCCc3ccc(F)cc3)c(=O)[nH]c12 [Example 3-8, 7-methoxy-2-oxo-8-pentyloxy-1,2-dihydroquinoline-3-carboxylic acid [2-(4-fluorophenyl)ethyl]amide] |  | 0.019 | 4275 |  | 81 | 
CCCCOc1c(OC)ccc2cc(C(=O)NCCc3ccncc3)c(=O)[nH]c12 [Example 3-16, 8-butoxy-7-methoxy-2-oxo-1,2-dihydroquinoline-3-carboxylic acid (2-pyridine-4-ylethyl)amide] | 208 | 0.01 | 20805 |  |  | 
CCOc1c(OC)ccc2cc(C(=O)NCCc3ccc(F)cc3)c(=O)[nH]c12 [Example 3-18, 8-ethoxy-7-methoxy-2-oxo-1,2-dihydroquinoline-3-carboxylic acid [2-(4-fluorophenyl)ethyl]amide] | 1750 | 7.1 | 247 |  |  | 
CCCCCOc1c(OC)ccc2cc(C(=O)NCCc3ccccc3F)c(=O)[nH]c12 [Example 3-19, 7-methoxy-2-oxo-8-pentyloxy-1,2-dihydroquinoline-3-carboxylic acid [2-(2-fluorophenyl)ethyl]amide] |  | 0.18 | 272 |  | 49 | 
CCCCCOc1c(OC)ccc2cc(C(=O)NCCc3cccc(F)c3)c(=O)[nH]c12 [Example 3-20, 7-methoxy-2-oxo-8-pentyloxy-1,2-dihydroquinoline-3-carboxylic acid [2-(3-fluorophenyl)ethyl]amide] |  | 0.41 |  |  | 78 | 191
CCCCCOc1c(OC)ccc2cc(C(=O)NCCc3ccc(O)c(OC)c3)c(=O)[nH]c12 [Example 3-21, 7-methoxy-2-oxo-8-pentyloxy-1,2-dihydroquinoline-3-carboxylic acid [2-(4-hydroxy-3-methoxyphenyl)ethyl]amide] | 162 | 0.97 | 167 |  |  | 
CCCCCOc1c(OC)ccc2cc(C(=O)NCCc3ccccc3)c(=O)[nH]c12 [Example 3-23, 7-methoxy-2-oxo-8-pentyloxy-1,2-dihydroquinoline-3-carboxylic acid (2-phenylethyl)amide] | 39 |  | 194 | 0.2 |  | 
CCCCCOc1c(OC)ccc2cc(C(=O)NCc3ccc(F)cc3)c(=O)[nH]c12 [Example 3-25, 7-methoxy-2-oxo-8-pentyloxy-1,2-dihydroquinoline-3-carboxylic acid (4-fluorobenzyl)amide] | 444 | 1.29 | 344 |  |  | 
COc1ccc2cc(C(=O)NCCc3ccc(F)cc3)c(=O)[nH]c2c1OC [Example 3-31, 7,8-dimethoxy-2-oxo-1,2-dihydroquinoline-3-carboxylic acid [2-(4-fluorophenyl)ethyl]amide] | 159 |  | 995 | 0.16 |  | 
CCCCCOc1cc2cc(C(=O)NCCc3ccc(F)cc3)c(=O)[nH]c2cc1OC [Example 3-32, 7-methoxy-2-oxo-6-pentyloxy-1,2-dihydroquinoline-3-carboxylic acid [2-(4-fluorophenyl)ethyl]amide] | 2400 | 0.036 | 66604 |  |  | 
CCCCCOc1cc2cc(C(=O)NCc3ccc4c(c3)OCO4)c(=O)[nH]c2cc1OC [Example 3-33, 7-methoxy-2-oxo-6-pentyloxy-1,2-dihydroquinoline-3-carboxylic acid (3,4-methylenedioxybenzyl)amide] | 273 | 1.06 | 258 |  |  | 
CCCCCOc1cc2cc(C(=O)NCCN3CCOCC3)c(=O)[nH]c2cc1OC [Example 3-34, 7-methoxy-2-oxo-6-pentyloxy-1,2-dihydroquinoline-3-carboxylic acid (2-morpholinoethyl) amide] |  | 0.011 | 15672 |  |  | 
CCOc1c(OC)ccc2cc(C(=O)NCc3ccc4c(c3)OCO4)c(=O)[nH]c12 [Example 3-35, 8-ethoxy-7-methoxy-2-oxo-1,2-dihydroquinoline-3-carboxylic acid (3,4-methylenedioxybenzyl) amide] | 409 | 0.053 | 7713 |  |  | 
CCCCCOc1c(OC)ccc2cc(C(=O)NCCc3ccc(F)cc3)c(=O)n(C)c12 [Example 3-36, 1-methyl-7-methoxy-2-oxo-8-pentyloxy-1,2-dihydroquinoline-3-carboxylic acid [2-(4-fluorophenyl)ethyl]amide] | 183 | 0.021 | 8695 |  |  | 
CCCCCOc1c(OC)ccc2cc(C(=O)NCCc3ccc(O)cc3)c(=O)n(C)c12 [Example 3-41, 1-methyl-7-methoxy-2-oxo-8-pentyloxy-1,2-dihydroquinoline-3-carboxylic acid [2-(4-hydroxyphenyl)ethyl]amide] |  | 0.35 | 176 |  | 62 | 
CCCCCOc1c(OC)ccc2cc(C(=O)NCc3ccc4c(c3)OCO4)c(=O)n(C)c12 [Example 3-42, 1-methyl-7-methoxy-2-oxo-8-pentyloxy-1,2-dihydroquinoline-3-carboxylic acid (3,4-methylenedioxybenzyl) amide] | 315 | 0.22 | 1430 |  |  | 
CCCCCOc1cc2cc(C(=O)NCCc3ccc(F)cc3)c(=O)n(C)c2cc1OC [Example 3-43, 1-methyl-7-methoxy-2-oxo-6-pentyloxy-1,2-dihydroquinoline-3-carboxylic acid [2-(4-fluorophenyl)ethyl]amide] | 864 | 0.043 | 20093 |  |  | 
CCCCCOc1cc2cc(C(=O)NCCN3CCOCC3)c(=O)n(C)c2cc1OC [Example 3-44, 1-methyl-7-methoxy-2-oxo-6-pentyloxy-1,2-dihydroquinoline-3-carboxylic acid (2-morpholinoethyl)amide] | 193 | 0.18 | 1075 |  |  | 
